# Experimental data reported in US20110206638A1, “COMPOSITIONS AND METHODS FOR REDUCING THE MUTATION RATE OF VIRUSES” (priority 2010, published 2011).
# “Also recorded” adds a separate entry of the source.
# Tests used:
# Con1 replicon cells = assay: 8-OHG oxidative RNA damage in SgPC2 Con1 replicon cells (ELISA); type: cell-based, human; settings: for level of 8-OHG in ethanol and BSO-treated replicon cells with inhibitor: 0.5% ethanol or 20 μM BSO daily for 48 hr, 10 μM dipyridyl, 2 mM GSH ester, 5 μM PIH, 0.1 mM DETAPAC, 1 mM L-NMA, DPI, 25 μM DADS
# Experimental: Total RNA was isolated using Trizol (Invitrogen) and analyzed for 8-OH-guanosine (8-OH-G) by northwestern, as described (Shan X et al. (2003) J. Neurosci. 23:4913-4921). Briefly, RNA was size-fractionated by agarose gel electrophoresis, transferred to a nylon membrane, blocked with 1% BSA, incubated sequentially with monoclonal anti-8-OH-G/dG antibodies (QED Bioscience, Inc.) and then with goat anti-mouse HRP-conjugated secondary antibody (Santa Cruz Biotechnology), and signals were detected, using an ECL kit (Amersham). In addition, RNA was digested with nuclease P1 (Sigma, US Biological) and alkaline phosphatase (Promega) and analyzed for 8-OH-G content using RNA Damage Kit (Cell Biolabs, Inc.), following manufacturer's protocols.
# Total RNA was isolated using Trizol (Invitrogen) and analyzed for 8-OHG by ELISA. Briefly, RNA was incubated with 10 U DNase I (GE Healthcare), 10 U nuclease P1 (Sigma or US Biological), and 10 U alkaline phosphatase (Promega) and analyzed for 8-OHG content with RNA Damage Kit (Cell Biolabs, Inc.) and 8-OHG standards, following manufacturer's protocols.
# [1] = tested on: subgenomic HCV replicon of genotype 1b (Con1S1179I), NS5A region; assay: NS5A sequencing of HCV RNA, nucleotide and amino acid substitution rates in Con1 replicon cells (Example 2); type: cell-based, Hepatitis C virus; settings: for amino acid substitution rate in the BSO group with co-treatment: 20 μM BSO daily for 48 hr; for amino acid substitution rate in the BSO group with co-treatment / amino acid substitution rate in the ethanol group with co-treatment / nt. substitution rates of ethanol and BSO groups with co-treatment / dn/ds ratio in the BSO group with co-treatment: 10 μM dipyridyl or 2 mM GSH ester; for amino acid substitution rate in the ethanol group with co-treatment: 0.5% ethanol daily for 48 hr; for nt. substitution rates of ethanol and BSO groups with co-treatment: 0.5% ethanol or 20 μM BSO daily for 48 hr; for percentage of sites undergoing positive selection with co-treatment: FIG. 8A; for dn/ds ratio of the control group with co-treatment: from 0.31 without inhibitor; for dn/ds ratio in the BSO group with co-treatment: from 0.72 without inhibitor, 48 hr; for Nt. change per site: Con1 replicon cells, once daily for 48 hrs, T7 baseline subtracted, ethanol 0.5% v/v, BSO 20 μM, H2O2 100 μM, acetaldehyde 10 μM; for Fold increase (Amino acid change per site): over control, 48 hrs
# Experimental: Huh7 cell clones (SgPC2 cells) supporting continuous replication of a subgenomic HCV replicon of genotype 1b (Con1S1179I sequence) were used (Choi J. et al. (2004) Hepatology 39:81-89; Blight K J et al. (2000) Science 290:1972). Subgenomic replicons support the HCV RNA genome replication by the viral replicase but no virus is formed. The in vitro transcription, transfection of the viral RNA, and Huh7 human hepatoma cell culture were performed as described (Choi J. et al. (2004) Hepatology 39:81-89; Blight K J et al. (2000) Science 290:1972). All biochemicals including ethanol (molecular biology grade), acetaldehyde, BSO, H2O2, dipyridal, and GSH ethyl ester were obtained from SigmaAldrich except PIH, which was synthesized according to published methods (Kicic A et al., (2001) Cancer 92: 3093-3110; Ponka P. et al., (1979) FEBS Lett 97: 317-321).
# Total RNAs were collected using Trizol (Invitrogen). Then, the NS5A region (nt. 4612 to 6013 of Con1 replicon) was reverse transcribed/amplified with AccuScript High Fidelity RT-PCR System (Agilent). The reverse primer used for reverse transcription and PCR amplification was 5′-[…]-3′ (SEQ ID NO: 1), and the forward primer was 5′-[…]-3′ (SEQ ID NO: 2). The XbaI and HindIII restriction enzyme sites are underlined. The cDNA products were cloned into pUC19 via HindIII and XbaI sites and sequenced at the Joint Genome Institute (Livermore, Calif.) and University of California Berkeley Sequencing (Berkeley, Calif.). Sequences were aligned against Con1(S1179I) sequence, using BioEdit/MEGA 4.0 Molecular Evolutionary Genetics Analysis software. Cumulative synonymous and nonsynonymous mutations were computed using Synonymous Nonsynonomous Analysis Program (SNAP; www.hcv.lanl.gov). The […] ratio was calculated using SNAP. Amino acid substitution trends were analyzed by position with MutationCounter, a mutation counting program, developed for this project. The sequences were compared with 1,212 genotype 1b NS5A sequences pooled from the Lawrence Livermore HCV sequence database (www.hcv.lanl.gov) which included sequences from the European, Asian, and Russian databases. Sequences harboring gaps, undetermined nucleotides, or incomplete NS5A sequences were removed prior to the analysis.
# To test whether ethanol can affect the HCV RNA sequence, Con1 replicon cells that support genotype 1b subgenomic HCV RNA replication were incubated with ethanol (0.5% v/v), BSO (20 μM), H2O2 (100 μM), or acetaldehyde (10 μM) once daily for 48 hrs with a change of the cell culture medium at the time of each treatment. Acetaldehyde and H2O2 are generated during hepatic metabolism of ethanol. BSO, by inhibiting GSH biosynthesis, mimics GSH depletion seen in hepatitis C patients. GSH participates in detoxification reactions that remove reactive species such as H2O2 and acetaldehyde. Thus, by decreasing GSH, BSO also amplifies the effects of endogenous ROS and RNS, allowing one to test the effects of endogenous ROS/RNS. Then, the RNA was collected, and the NS5A region corresponding to nt. 4612 to 6013 of Con1 replicon was reverse transcribed using AccuScript reverse transcriptase and amplified with PfuUltra (Agilent). PfuUltra is a high fidelity DNA polymerase with an error rate of 4.3×10^−9; AccuScript reverse transcriptase has an error rate of 1.61×10^−7. Then, the cDNA products were cloned into pUC19 and sequenced by the Sanger method.
# [2] = tested on: subgenomic HCV replicon of genotype 1b (Con1), NS5A region; assay: NS5A sequencing of HCV RNA, mutation frequency in SgPC2 Con1 replicon cells (Example 1); type: cell-based, Hepatitis C virus; settings: H2O2 100 μM, acetaldehyde 10 μM, once daily for 48 hrs
# Experimental: Huh7 cell clones (SgPC2 cells) supporting continuous replication of a subgenomic HCV replicon of genotype 1b (Con1 sequence) were used (Choi J. et al. (2004) Hepatology 39:81-89; Blight K J et al. (2000) Science 290:1972). The subgenomic replicons support HCV RNA replication but no virus is formed. The in vitro transcription, transfection of HCV RNA, and Huh7 human hepatoma cell culture were performed by methods known in the art and as previously described (Choi J. et al. (2004) Hepatology 39:81-89; Blight K J et al. (2000) Science 290:1972).
# After various treatments, total RNAs were collected using Trizol (Invitrogen). Then, the NS5A region (nt. 4612 to 6013 of Con1 replicon) was reverse transcribed/amplified with AccuScript High Fidelity RT-PCR System (Stratagene). The cDNAs were cloned into pUC19 and sequenced at the Joint Genome Institute (Livermore, Calif.). Sequences were aligned against Con1(S11791) sequence, using BioEdit/MEGA 4.0 Molecular Evolutionary Genetics Analysis software.
# To test whether ethanol can increase the mutation rate of HCV, SgPC2 Con1 replicon cells that support genotype 1b subgenomic HCV RNA replication (FIG. 2B) were incubated with ethanol (0.5%), BSO (amplifies the effects of endogenous ROS/RNS by decreasing the level of glutathione in the cell), H2O2 (100 μM), or acetaldehyde (10 μM) once daily for 48 hrs. Then, the RNAs were collected, and the NS5A region (nt. 4612 to 6013 of Con1 replicon) was reverse transcribed/amplified with AccuScript High Fidelity RT-PCR System (Stratagene). Then, the cDNAs were cloned into pUC19 and sequenced at the Joint Genome Institute (Livermore, Calif.). T7 HCV RNA transcript, initially used to transfect the Con1 cells, was also sequenced to assess the basal level of RNA heterogeneity, such as due to any heterogeneity of the DNA template prior to in vitro transcription as well as any errors generated during transcription and RT-PCR cloning. The experiments were focused on NS5A because of its moderate level of diversity and its role in viral replication as well as interferon resistance. Sequences were aligned against Con1(S1179I) sequence, using BioEdit/MEGA 4.0 Molecular Evolutionary Genetics Analysis software.
structure (smiles),measurement,setting,value
"C=CCSSCC=C [DADS, diallyl disulfide]",level of 8-OHG in ethanol and BSO-treated replicon cells with inhibitor,Con1 replicon cells,reduce; also recorded: decreased
"O=C(O)CN(CCN(CC(=O)O)CC(=O)O)CCN(CC(=O)O)CC(=O)O [DETAPAC, 1,1,4,7,7-diethylenetriaminepentaacetic acid]",level of 8-OHG in ethanol and BSO-treated replicon cells with inhibitor,Con1 replicon cells,decreased
same,decrease of 8-OHG levels in BSO-treated SgPC2 cells,Con1 replicon cells; DETAPAC 0.1 mM,19.7±0.2%
same,decrease of 8-OHG levels in control SgPC2 cells,Con1 replicon cells; DETAPAC 0.1 mM,28.0±0.3%
same,decrease of 8-OHG levels in ethanol-treated SgPC2 cells,Con1 replicon cells; DETAPAC 0.1 mM,13.8±0.3%
"c1ccc2c(c1)[I+]c1ccccc1-2 [DPI, diphenylene iodonium]",level of 8-OHG in ethanol and BSO-treated replicon cells with inhibitor,Con1 replicon cells,reduce; also recorded: decreased
"c1ccc(-c2ccccn2)nc1 [Dipyridyl, α,α′-Dipyridyl]",dn/ds ratio in the ethanol group with co-treatment,[1],0.46
same,amino acid substitution rate in the BSO group with co-treatment,[1],effectively abolished
same,amino acid substitution rate in the ethanol group with co-treatment,[1],significantly attenuated
same,nt. substitution rates of ethanol and BSO groups with co-treatment,[1],no longer any significant increase over the control
same,percentage of sites undergoing positive selection with co-treatment,[1],decreased
same,dn/ds ratio of the control group with co-treatment,[1],did not affect
same,dn/ds ratio in the BSO group with co-treatment,[1],0.46
same,level of 8-OHG in ethanol and BSO-treated replicon cells with inhibitor,Con1 replicon cells,significantly decreased
"CCOC(=O)CNC(=O)[C@H](CS)NC(=O)CC[C@H](N)C(=O)O [GSH ester, glutathione ethyl ester]",dn/ds ratio in the ethanol group with co-treatment,[1],0.43
same,amino acid substitution rate in the BSO group with co-treatment,[1],not significantly above the control
same,amino acid substitution rate in the ethanol group with co-treatment,[1],not significantly above the control
same,nt. substitution rates of ethanol and BSO groups with co-treatment,[1],not significantly above the control
same,percentage of sites undergoing positive selection with co-treatment,[1],decreased
same,dn/ds ratio of the control group with co-treatment,[1],0.24
same,dn/ds ratio in the BSO group with co-treatment,[1],0.21
same,level of 8-OHG in ethanol and BSO-treated replicon cells with inhibitor,Con1 replicon cells,reduce; also recorded: effectively decreased
"OO [H2O2, hydrogen peroxide]",increase in mutation frequency vs control,[2],not statistically significant
same,Nt. change per site,[1],5.28×10^−4 nt. change per site
same,Fold increase (Amino acid change per site),[1],about 10 fold
"CC(=O)O.CNC(=N)NCCC[C@H](N)C(=O)O [L-NMA, N^G-methyl-L-arginine acetate]",level of 8-OHG in ethanol and BSO-treated replicon cells with inhibitor,Con1 replicon cells,reduce; also recorded: decreased
[Cl][Ni][Cl] [NiCl2],fold increase in 8-OHG content over the control,"Con1 replicon cells; 48 hrs, 0.5% (v/v) ethanol, 20 μM BSO, 250 μM NiCl2 daily",55.4±3.1 fold
"Cc1ncc(CO)c(C=NNC(=O)c2ccncc2)c1O [PIH, pyridoxal isonicotinoyl hydrazone]",level of 8-OHG in ethanol and BSO-treated replicon cells with inhibitor,Con1 replicon cells,decreased
same,level of 8-OHG in ethanol and BSO-treated replicon cells with inhibitor,Con1 replicon cells; listed as pyridoxal isonicotinoyl hydrazone,significantly decreased
CC=O [acetaldehyde],increase in mutation frequency vs control,[2],not statistically significant
same,Nt. change per site,[1],4.25×10^−4 nt. change per site
same,Fold increase (Amino acid change per site),[1],did not increase
same,"8-OH-G in Con1 replicon (SgPC2) cells, daily treatment for 2 weeks","Con1 replicon cells; 0.1% ethanol, 5 μM acetaldehyde, 20 μM BSO",significant increases
